Assay results published in US10035800B2 (AbbVie Inc., priority 2013, dated 2018).

Legend:
BRD4 (BDI_K57-E168) = biological target: T1, BRD4 (BDI_K57-E168) (Homo sapiens, UniProt O60885); assay: TR-FRET bromodomain binding assay, first bromodomain of BRD4; conditions: TR-FRET assay protocol G (compound 0.92 μM-15 pM); 100 nM probe
T1 construct: BD1: amino acids K57-E168; made in house
Method: (§1) Bromodomain Domain Binding Assay
(§2) A time-resolved fluorescence resonance energy transfer (TR-FRET) assay was used to determine the affinities of compounds of the Examples listed in Table 1 for each bromodomain of BRD4. His-tagged first (BD1: amino acids K57-E168) and second (BD2: amino acids […]) bromodomains of BRD4 were expressed and purified. An Alexa647-labeled BET-inhibitor was used as the fluorescent probe in the assay.
(§3) Compound dilution series were prepared in DMSO via an approximately 3-fold serial dilution from one of the following: […]
(§4) Assay method E: 0.47 mM to 7.8 nM […]
(§5) Assay method G: 0.047 mM to 0.78 nM
(§6) or 5-fold serial dilution from one of the following: […]
(§7) Assay method B: 2.5 mM-797 nM […]
(§8) For Assay methods B, E, and G: Compound dilutions were added directly into white, low-volume assay plates (Perkin Elmer Proxiplate 384 Plus#6008280) using a Labcyte Echo in conjunction with Labcyte Access and Thermo Multidrop CombinL robotics. Compounds were then suspended in eight microliters (μL) of assay buffer (20 mM Sodium Phosphate, pH 6.0, 50 mM NaCl, 1 mM Ethylenediaminetetraacetic acid disodium salt dihydrate, 0.01% Triton X-100, 1 mM DL-Dithiothreitol) containing His-tagged bromodomain, Europium-conjugated anti-His antibody (Invitrogen PV5596) and Alexa-647-conjugated probe.
(§9) The final concentration of 1× assay mixture for assay methods A, B, C, D, E, F, and G contains 2% DMSO, 8 nM His-tagged bromodomain, 1 nM Europium-conjugated anti-His-tag antibody and 100 nM or 30 nM probe (for BDI or BDII, respectively) and compound concentration in the range of: 50 μM-16 nM for method A, 49.02 μM-15.63 nM for method B, 25 μM-423 pM for method C, 10 μM-169 pM for method D, 9.19 μM-150 pM for method E, 5 μM-85 pM for method F, and 0.92 μM-15 pM for method G.
(§10) After a one-hour equilibration at room temperature, TR-FRET ratios were determined using an Envision multilabel plate reader (Ex 340, Em 495/520).
(§11) TR-FRET data were normalized to the means of 24 no-compound controls (“high”) and 8 controls containing 1 μM un-labeled probe (“low”). Percent inhibition was plotted as a function of compound concentration and the data were fit with the 4 parameter logistic equation to obtain IC50s. Inhibition constants (Ki) were calculated from the IC50s, probe Kd and probe concentration. Typical Z′ values were between 0.65 and 0.75. The minimum significant ratio was determined to evaluate assay reproducibility (Eastwood et al., (2006) J Biomol Screen, 11: 253-261). The MSR was determined to be 2.03 for BDI and 1.93 for BDII, and a moving MSR (last six run MSR overtime) for both BDI and BDII was typically <3.

BRD4 (BDII_E352-M457) = biological target: T2, BRD4 (BDII_E352-M457) (Homo sapiens, UniProt O60885); assay: TR-FRET bromodomain binding assay, second bromodomain of BRD4; conditions: TR-FRET assay protocol G (compound 0.92 μM-15 pM); 30 nM probe
T2 construct: protocol; made in house
Method: as §1, §2, §3, §4, §5, §6, §7, §8, §9, §10, §11

In the case of `CCOC(=O)C1c2c[nH]c3c(=O)n(C)cc(c23)-c2cc(C)cnc2N1c1ccc(F)cc1` (centres unmarked) [Example 43, ethyl 4-(4-fluorophenyl)-7,10-dimethyl-11-oxo-3,4,10,11-tetrahydro-1H-1,4,5,10-tetraazadibenzo[cd,f]azulene-3-carboxylate], the Ki (BRD4 (BDI_K57-E168)) is reported as 7.29 nM and the Ki (BRD4 (BDII_E352-M457)) is reported as 24.7 nM.

Compound `Cn1cc2c3c(c[nH]c3c1=O)CN(C(=O)c1ccc(F)cc1)c1ccc(CS(C)(=O)=O)cc1-2` [Example 100, 4-(4-fluorobenzoyl)-10-methyl-7-((methylsulfonyl)methyl)-3,4-dihydro-1H-1,4,10-triazadibenzo[cd,f]azulen-11(10H)-one] has a Ki (BRD4 (BDI_K57-E168)) of 29.8 nM and a Ki (BRD4 (BDII_E352-M457)) of 7.41 nM.

In the case of `COc1cccc(CNC(=O)N2Cc3c[nH]c4c(=O)n(C)cc(c34)-c3cc(CS(C)(=O)=O)ccc32)c1` [Example 65, N-(3-methoxybenzyl)-10-methyl-7-((methylsulfonyl)methyl)-11-oxo-10,11-dihydro-1H-1,4,10-triazadibenzo[cd,f]azulene-4(3H)-carboxamide], the Ki (BRD4 (BDI_K57-E168)) is reported as > 238 nM and the Ki (BRD4 (BDII_E352-M457)) is reported as 238 nM.

`Cn1cc2c3c(c[nH]c3c1=O)CN(C(=O)c1ccccc1)c1ccc(CS(C)(=O)=O)cc1-2` [Example 109, 4-benzoyl-10-methyl-7-((methylsulfonyl)methyl)-3,4-dihydro-1H-1,4,10-triazadibenzo[cd,f]azulen-11(10H)-one] showed a Ki (BRD4 (BDI_K57-E168)) of 64.1 nM and a Ki (BRD4 (BDII_E352-M457)) of 15.6 nM.

Work on `CCN1CCCC(CN2Cc3c[nH]c4c(=O)n(C)cc(c34)-c3cc(CS(C)(=O)=O)ccc32)C1` (centres unmarked) [Example 150, 4-((1-ethylpiperidin-3-yl)methyl)-10-methyl-7-((methylsulfonyl)methyl)-3,4-dihydro-1H-1,4,10-triazadibenzo[cd,f]azulen-11(10H)-one] yielded a Ki (BRD4 (BDI_K57-E168)) of 4.05 nM and a Ki (BRD4 (BDII_E352-M457)) of 10.8 nM.

In the case of `Cn1cc2c3c(c[nH]c3c1=O)CN(C(=O)CCC1CCCC1)c1ccc(CS(C)(=O)=O)cc1-2` [Example 103, 4-(3-cyclopentylpropanoyl)-10-methyl-7-((methylsulfonyl)methyl)-3,4-dihydro-1H-1,4,10-triazadibenzo[cd,f]azulen-11(10H)-one], the Ki (BRD4 (BDI_K57-E168)) is reported as 8.12 nM and the Ki (BRD4 (BDII_E352-M457)) is reported as 4.71 nM.

With “2-(3-(10-methyl-7-((methylsulfonyl)methyl)-11-oxo-10,11-dihydro-1H-1,4,10-triazadibenzo[cd,f]azulen-4(3H)-yl)pyrrolidin-1-yl)acetic acid [Example 179]” the Ki (BRD4 (BDI_K57-E168)) was 20.1 nM and the Ki (BRD4 (BDII_E352-M457)) was 80.7 nM.

For `Cn1cc2c3c(c[nH]c3c1=O)CN(C(=O)Nc1ccc(F)c(C(F)(F)F)c1)c1ccc(CS(C)(=O)=O)cc1-2` [Example 71, N-(4-fluoro-3-(trifluoromethyl)phenyl)-10-methyl-7-((methylsulfonyl)methyl)-11-oxo-10,11-dihydro-1H-1,4,10-triazadibenzo[cd,f]azulene-4(3H)-carboxamide], the Ki (BRD4 (BDI_K57-E168)) was 30.4 nM and the Ki (BRD4 (BDII_E352-M457)) was 26.7 nM.

Work on `Cn1cc2c3c(c[nH]c3c1=O)CN(C(=O)OCCF)c1ccc(CS(C)(=O)=O)cc1-2` [Example 96, 2-fluoroethyl 10-methyl-7-((methylsulfonyl)methyl)-11-oxo-10,11-dihydro-1H-1,4,10-triazadibenzo[cd,f]azulene-4(3H)-carboxylate] yielded a Ki (BRD4 (BDI_K57-E168)) of 3.46 nM and a Ki (BRD4 (BDII_E352-M457)) of 1.61 nM.

In the case of `CCOC(=O)C1Nc2ncc(F)cc2-c2cn(C)c(=O)c3[nH]cc1c23` (centres unmarked) [Example 39, ethyl 7-fluoro-10-methyl-11-oxo-3,4,10,11-tetrahydro-1H-1,4,5,10-tetraazadibenzo[cd,f]azulene-3-carboxylate], the Ki (BRD4 (BDI_K57-E168)) is reported as > 238 nM and the Ki (BRD4 (BDII_E352-M457)) is reported as > 408 nM.

Work on `Cn1cc2c3c(c[nH]c3c1=O)CN(Cc1ccccc1OCC(N)=O)c1ccc(CS(C)(=O)=O)cc1-2` [Example 262, 2-(2-((10-methyl-7-((methylsulfonyl)methyl)-11-oxo-10,11-dihydro-1H-1,4,10-triazadibenzo[cd,f]azulen-4(3H)-yl)methyl)phenoxy)acetamide] yielded a Ki (BRD4 (BDI_K57-E168)) of 9.37 nM and a Ki (BRD4 (BDII_E352-M457)) of 13.2 nM.

With `Cn1cc2c3c(c[nH]c3c1=O)C(Cn1ccccc1=O)N(c1ccc(F)cc1F)c1ccc(CS(C)(=O)=O)cc1-2` (single isomer, unassigned) [Example 251] the Ki (BRD4 (BDI_K57-E168)) was > 238 nM and the Ki (BRD4 (BDII_E352-M457)) was 142 nM.

Compound `CCCCC(CC)COC(=O)N1Cc2c[nH]c3c(=O)n(C)cc(c23)-c2cc(CS(C)(=O)=O)ccc21` (centres unmarked) [Example 53, 2-ethylhexyl 10-methyl-7-((methylsulfonyl)methyl)-11-oxo-10,11-dihydro-1H-1,4,10-triazadibenzo[cd,f]azulene-4(3H)-carboxylate] has a Ki (BRD4 (BDI_K57-E168)) of 4.78 nM and a Ki (BRD4 (BDII_E352-M457)) of 21.9 nM.

Work on `Cn1cc2c3c(c[nH]c3c1=O)C(C(=O)NC1CCCCC1)N(c1ccc(F)cc1F)c1ccc(CS(C)(=O)=O)cc1-2` (centres unmarked) [Example 158, N-cyclohexyl-4-(2,4-difluorophenyl)-10-methyl-7-((methylsulfonyl)methyl)-11-oxo-3,4,10,11-tetrahydro-1H-1,4,10-triazadibenzo[cd,f]azulene-3-carboxamide] yielded a Ki (BRD4 (BDI_K57-E168)) of 60.3 nM and a Ki (BRD4 (BDII_E352-M457)) of 77.3 nM.

For `COc1ccc(C(=O)N2Cc3c[nH]c4c(=O)n(C)cc(c34)-c3cc(CS(C)(=O)=O)ccc32)cc1` [Example 110, 4-(4-methoxybenzoyl)-10-methyl-7-((methylsulfonyl)methyl)-3,4-dihydro-1H-1,4,10-triazadibenzo[cd,f]azulen-11(10H)-one], the Ki (BRD4 (BDI_K57-E168)) was 41.7 nM and the Ki (BRD4 (BDII_E352-M457)) was 19.9 nM.

Compound `COC(=O)CC[C@H]1c2c[nH]c3c(=O)n(C)cc(c23)-c2cc(CS(C)(=O)=O)ccc2N1c1ccc(F)cc1F` (single isomer, unassigned) [Example 269] has a Ki (BRD4 (BDI_K57-E168)) of 5.69 nM and a Ki (BRD4 (BDII_E352-M457)) of 0.92 nM.

“4-((1-isopropylpiperidin-4-yl)methyl)-10-methyl-7-((methylsulfonyl)methyl)-3,4-dihydro-1H-1,4,10-triazadibenzo[cd,f]azulen-11(10H)-one [Example 183]” showed a Ki (BRD4 (BDI_K57-E168)) of 3.84 nM and a Ki (BRD4 (BDII_E352-M457)) of 15.5 nM.

Work on “4-(1-ethylpiperidin-3-yl)-10-methyl-7-((methylsulfonyl)methyl)-3,4-dihydro-1H-1,4,10-triazadibenzo[cd,f]azulen-11(10H)-one [Example 190]” yielded a Ki (BRD4 (BDI_K57-E168)) of 26.7 nM and a Ki (BRD4 (BDII_E352-M457)) of 30.9 nM.

Compound “tert-butyl 4-(3-(4-(2,4-difluorophenyl)-10-methyl-7-((methylsulfonyl)methyl)-11-oxo-3,4,10,11-tetrahydro-1H-1,4,10-triazadibenzo[cd,f]azulen-3-yl)propanamido)piperidine-1-carboxylate [Example 126]” has a Ki (BRD4 (BDI_K57-E168)) of 53.6 nM and a Ki (BRD4 (BDII_E352-M457)) of 80 nM.

With `Cn1cc2c3c(c[nH]c3c1=O)CN(S(=O)(=O)c1ccc(F)cc1)c1ccc(CS(C)(=O)=O)cc1-2` [Example 80, 4-((4-fluorophenyl)sulfonyl)-10-methyl-7-((methylsulfonyl)methyl)-3,4-dihydro-1H-1,4,10-triazadibenzo[cd,f]azulen-11(10H)-one] the Ki (BRD4 (BDI_K57-E168)) was > 238 nM and the Ki (BRD4 (BDII_E352-M457)) was > 408 nM.

With `Cn1cc2c3c(c[nH]c3c1=O)CN(CC1CCOC(C)(C)C1)c1ccc(CS(C)(=O)=O)cc1-2` (racemic) [Example 152, 4-((2,2-dimethyltetrahydro-2H-pyran-4-yl)methyl)-10-methyl-7-((methylsulfonyl)methyl)-3,4-dihydro-1H-1,4,10-triazadibenzo[cd,f]azulen-11(10H)-one] the Ki (BRD4 (BDI_K57-E168)) was 7.18 nM and the Ki (BRD4 (BDII_E352-M457)) was 11 nM.

For `CCS(=O)(=O)c1ccc2c(c1)-c1cn(C)c(=O)c3[nH]cc(c13)CN2[C@@H](C)c1ccccc1` [Example 267, (S)-7-(ethylsulfonyl)-10-methyl-4-(1-phenylethyl)-3,4-dihydro-1H-1,4,10-triazadibenzo[cd,f]azulen-11(10H)-one], the Ki (BRD4 (BDI_K57-E168)) was 72.7 nM and the Ki (BRD4 (BDII_E352-M457)) was 94.7 nM.
